Patent US9290451B2 (Hoffmann-La Roche Inc., priority 2011, dated 2016)

Experiments:
human CB2 receptors = human CB2 receptors (Homo sapiens (Human), UniProt P34972); experiment: cAMP assay, CHO cells expressing human CB2 receptors; type: cell-based; details: CHO cells expressing human CB2, cAMP; read-out: human CB2 EC50
Experimental: (§1) CHO cells expressing human CB1 or CB2 receptors are seeded 17-24 hours prior to the experiment 50.000 cells per well in a black 96 well plate with flat clear bottom (Corning Costar #3904) in DMEM (Invitrogen No. 31331), 1×HT supplement, with 10% fetal calf serum and incubated at 5% CO2 and 37° C. in a humidified incubator. The growth medium was exchanged with Krebs Ringer Bicarbonate buffer with 1 mM IBMX and incubated at 30° C. for 30 min Compounds were added to a final assay volume of 100 μl and incubated for 30 min at 30° C. Using the cAMP-Nano-TRF detection kit the assay (Roche Diagnostics) was stopped by the addition of 50 μl lysis reagent (Tris, NaCl, 1.5% Triton X100, 2.5% NP40, 10% NaN3) and 50 μl detection solutions (20 μM mAb Alexa700-cAMP 1:1, and 48 μM Ruthenium-2-AHA-cAMP) and shaken for 2 h at room temperature. The time-resolved energy transfer is measured by a TRF reader (Evotec Technologies GmbH), equipped with a ND:YAG laser as excitation source. The plate is measured twice with the excitation at 355 nm and at the emission with a delay of 100 ns and a gate of 100 ns, total exposure time 10 s at 730 (bandwidth 30 nm) or 645 nm (bandwidth 75 nm), respectively. The FRET signal is calculated as follows: FRET=T730-Alexa730-P(T645-B645) with P═Ru730-B730/Ru645-B645, where T730 is the test well measured at […], T645 is the test well measured at 645 nm, B730 and B645 are the buffer controls at 730 nm and 645 nm, respectively. cAMP content is determined from the function of a standard curve spanning from 10 μM to 0.13 nM cAMP.
(§2) EC50 values were determined using Activity Base analysis (ID Business Solution, Limited). The EC50 values for a wide range of cannabinoid agonists generated from this assay for reference compounds were in agreement with the values published in the scientific literature.

human CB1 receptors = human CB1 receptors (Homo sapiens (Human), UniProt P21554); experiment: cAMP assay, CHO cells expressing human CB1 receptors; type: cell-based; details: CHO cells expressing human CB1, cAMP; read-out: human CB1 EC50
Experimental: as §1, §2

Chain of human CB2 receptors (P34972 whole entry): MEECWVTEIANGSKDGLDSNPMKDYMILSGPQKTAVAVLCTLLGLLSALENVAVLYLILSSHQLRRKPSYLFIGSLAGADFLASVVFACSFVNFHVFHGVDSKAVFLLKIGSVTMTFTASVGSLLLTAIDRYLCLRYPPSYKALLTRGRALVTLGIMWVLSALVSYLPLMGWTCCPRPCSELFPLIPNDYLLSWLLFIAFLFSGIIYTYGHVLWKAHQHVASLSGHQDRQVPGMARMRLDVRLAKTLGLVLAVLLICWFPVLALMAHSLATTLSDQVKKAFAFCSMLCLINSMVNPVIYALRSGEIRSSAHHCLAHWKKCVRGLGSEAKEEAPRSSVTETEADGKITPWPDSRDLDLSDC
Chain of human CB1 receptors (P21554 whole entry): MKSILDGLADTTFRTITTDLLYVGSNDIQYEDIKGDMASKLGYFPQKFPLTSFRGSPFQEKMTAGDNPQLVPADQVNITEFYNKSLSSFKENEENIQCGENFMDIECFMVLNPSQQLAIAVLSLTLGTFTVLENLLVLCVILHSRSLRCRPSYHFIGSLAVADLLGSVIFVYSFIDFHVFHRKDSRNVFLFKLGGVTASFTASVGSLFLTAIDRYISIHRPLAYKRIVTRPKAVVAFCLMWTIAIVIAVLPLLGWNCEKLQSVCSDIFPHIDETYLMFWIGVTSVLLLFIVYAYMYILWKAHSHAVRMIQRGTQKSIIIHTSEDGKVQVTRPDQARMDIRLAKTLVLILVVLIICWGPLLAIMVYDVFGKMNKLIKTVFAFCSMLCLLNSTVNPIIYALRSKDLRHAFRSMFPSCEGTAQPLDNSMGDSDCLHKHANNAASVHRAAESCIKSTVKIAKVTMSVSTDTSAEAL

Structure (SMILES)	EC50 (human CB2 receptors)	EC50 (human CB1 receptors)
NC(=O)[C@H](CC1CC1)NC(=O)c1ccc(C2CC2)c(Cc2ccc(F)cc2)n1 [Example 326, 5-Cyclopropyl-6-(4-fluoro-benzyl)-pyridine-2-carboxylic acid ((S)-1-carbamoyl-2-cyclopropyl-ethyl)-amide]	0.2 nM	59 nM
O=C(Nc1ccccn1)c1cccc(-c2cccc(Cl)c2)n1 [Example 20, 6-(3-Chloro-phenyl)-pyridine-2-carboxylic acid pyridin-2-ylamide]	262 nM	> 10000 nM
CCC(CC)(NC(=O)c1ccc(OC)c(-c2cccc(Cl)c2)n1)C(=O)NC [Example 81, 6-(3-Chloro-phenyl)-5-methoxy-pyridine-2-carboxylic acid (1-ethyl-1-methylcarbamoyl-propyl)-amide]	417 nM	> 10000 nM
CC(C)(NC(=O)c1cccc(-c2cccc(Cl)c2)n1)c1nnco1 [Example 17, 6-(3-Chloro-phenyl)-pyridine-2-carboxylic acid (1-methyl-1-[1,3,4]oxadiazol-2-yl-ethyl)-amide]	566 nM	> 10000 nM
COC(=O)[C@@H](NC(=O)c1ccc(C2CC2)c(OCC2CC2)n1)C(C)(C)C [Example 239, (S)-2-[(5-Cyclopropyl-6-cyclopropylmethoxy-pyridine-2-carbonyl)-amino]-3,3-dimethyl-butyric acid methyl ester]	1.1 nM	91.9 nM
CNC(=O)C(C)(C)NC(=O)c1ccc(N2CC(F)(F)C2)c(OCC2CC2)n1 [Example 87, 6-Cyclopropylmethoxy-5-(3,3-difluoro-azetidin-1-yl)-pyridine-2-carboxylic acid (1-methyl-1-methylcarbamoyl-ethyl)-amide]	476 nM	> 10000 nM
CC(C)(NC(=O)c1cccc(-c2cccc(Cl)c2)n1)c1ncco1 [Example 8, 6-(3-Chloro-phenyl)-pyridine-2-carboxylic acid (1-methyl-1-oxazol-2-yl-ethyl)-amide]	99.6 nM	> 10000 nM
CCC(CC)(NC(=O)c1ccc(N2CC(F)(F)C2)c(OCC2CC2)n1)C(=O)NC [Example 86, 6-Cyclopropylmethoxy-5-(3,3-difluoro-azetidin-1-yl)-pyridine-2-carboxylic acid (1-ethyl-1-methylcarbamoyl-propyl)-amide]	33.1 nM	> 10000 nM
Cc1nc(C(C)(C)NC(=O)c2ccc(N3CC(=O)C3)c(OCC3CC3)n2)no1 [Example 322, 6-Cyclopropylmethoxy-5-(3-oxo-azetidin-1-yl)-pyridine-2-carboxylic acid [1-methyl-1-(5-methyl-[1,2,4]oxadiazol-3-yl)-ethyl]-amide]	424 nM	> 10000 nM
COCCOCC(C)(C)NC(=O)c1ccc(C2CC2)c(OCC2CC2)n1 [Example 117, 5-Cyclopropyl-6-cyclopropylmethoxy-pyridine-2-carboxylic acid [2-(2-methoxy-ethoxy)-1,1-dimethyl-ethyl]-amide]	350 nM	> 10000 nM
CCC(CC)(NC(=O)c1ccc(C2CCOCC2)c(OCC2CC2)n1)C(=O)NC [Example 85, 6-Cyclopropylmethoxy-5-(tetrahydro-pyran-4-yl)-pyridine-2-carboxylic acid (1-ethyl-1-methylcarbamoyl-propyl)-amide]	186 nM	> 10000 nM
CCC(CC)(NC(=O)c1ccc(C2CC2)c(OCC(F)(F)C(F)(F)F)n1)C(=O)NC [Example 298, 5-Cyclopropyl-6-(2,2,3,3,3-pentafluoro-propoxy)-pyridine-2-carboxylic acid (1-ethyl-1-methylcarbamoyl-propyl)-amide]	14.2 nM	> 10000 nM
CCC(CC)(NC(=O)c1ccc(C2CC2)c(Cc2ccc(F)cc2)n1)C(=O)O [Example 333, 2-{[5-Cyclopropyl-6-(4-fluoro-benzyl)-pyridine-2-carbonyl]-amino}-2-ethyl-butyric acid]	8 nM	81 nM
CNC(=O)[C@@H](NC(=O)c1ccc(C2CC2)c(OCC2CCCO2)n1)C(C)(C)C (stereo partly drawn) [Example 183, 5-Cyclopropyl-N-((S)-3,3-dimethyl-1-(methylamino)-1-oxobutan-2-yl)-6-((tetrahydrofuran-2-yl)methoxy)picolinamide]	4 nM	102 nM
CCC(CC)(NC(=O)c1ccc(C2CCCC2)c(OCC2CC2)n1)C(=O)NC [Example 111, 5-Cyclopentyl-6-cyclopropylmethoxy-pyridine-2-carboxylic acid (1-ethyl-1-methylcarbamoyl-propyl)-amide]	6.9 nM	> 10000 nM
NC(=O)[C@@H](NC(=O)c1ccc(C2CC2)c(OCC2CC2)n1)c1ccc(Cl)cc1 [Example 329, 5-Cyclopropyl-6-cyclopropylmethoxy-pyridine-2-carboxylic acid [(S)-carbamoyl-(4-chloro-phenyl)-methyl]-amide]	21.1 nM	> 10000 nM
O=C(NN1CCCCC1)c1cccc(-c2ccc(Cl)cc2)n1 [Example 46, 6-(4-Chloro-phenyl)-pyridine-2-carboxylic acid piperidin-1-ylamide]	290 nM	> 10000 nM
Cc1nc(C(C)(C)NC(=O)c2ccc(C3CCCC3)c(-c3cccc(Cl)c3)n2)no1 [Example 106, 6-(3-Chloro-phenyl)-5-cyclopentyl-pyridine-2-carboxylic acid [1-methyl-1-(5-methyl-[1,2,4]oxadiazol-3-yl)-ethyl]-amide]	215 nM	> 10000 nM
O=C(N[C@H](c1cccnc1)C(F)(F)F)c1ccc(N2CC(F)(F)C2)c(OCC2CC2)n1 [Example 237, 6-Cyclopropylmethoxy-5-(3,3-difluoro-azetidin-1-yl)-pyridine-2-carboxylic acid ((R)-2,2,2-trifluoro-1-pyridin-3-yl-ethyl)-amide]	97.5 nM	> 10000 nM
CN(C)C(=O)[C@H](CC1CC1)NC(=O)c1ccc(N2CC(F)(F)C2)c(OCC2CC2)n1 [Example 256, 6-Cyclopropylmethoxy-5-(3,3-difluoro-azetidin-1-yl)-pyridine-2-carboxylic acid ((S)-2-cyclopropyl-1-dimethylcarbamoyl-ethyl)-amide]	9.3 nM	> 10000 nM
CN1CC(NC(=O)c2ccc(N3CC(F)(F)C3)c(OCC3CC3)n2)CC1=O (centres unmarked) [Example 290, 6-Cyclopropylmethoxy-5-(3,3-difluoro-azetidin-1-yl)-pyridine-2-carboxylic acid (1-methyl-5-oxo-pyrrolidin-3-yl)-amide]	846 nM	> 10000 nM
CC(C)(NC(=O)c1ccc(C2CCOCC2)c(OCC2CC2)n1)c1ncco1 [Example 93, 6-Cyclopropylmethoxy-5-(tetrahydro-pyran-4-yl)-pyridine-2-carboxylic acid (1-methyl-1-oxazol-2-yl-ethyl)-amide]	120 nM	> 10000 nM
CCC(CC)(NC(=O)c1cccc(-c2ccc(Cl)cc2)n1)C(=O)NC [Example 76, 6-(4-Chloro-phenyl)-pyridine-2-carboxylic acid (1-ethyl-1-methylcarbamoyl-propyl)-amide]	185 nM	> 10000 nM
CC(C)C[C@H](NC(=O)c1ccc(NC2CC2)c(OCC2CC2)n1)C(N)=O [Example 134, 5-Cyclopropylamino-6-cyclopropylmethoxy-pyridine-2-carboxylic acid ((S)-1-carbamoyl-3-methyl-butyl)-amide]	5.1 nM	151 nM
CC(C)C[C@H](NC(=O)c1ccc(C2CCOC2)c(OCC2CC2)n1)C(N)=O (stereo partly drawn) [Example 114, 6-Cyclopropylmethoxy-5-(tetrahydro-furan-3-yl)-pyridine-2-carboxylic acid ((S)-1-carbamoyl-3-methyl-butyl)-amide]	5.7 nM	703 nM
CSCC[C@H](NC(=O)c1ccc(N2CC(F)(F)C2)c(OCC2CC2)n1)C(N)=O [Example 342, 6-Cyclopropylmethoxy-5-(3,3-difluoro-azetidin-1-yl)-pyridine-2-carboxylic acid ((S)-1-carbamoyl-3-methylsulfanyl-propyl)-amide]	2.8 nM	> 10000 nM
CC(C)CC(C#N)NC(=O)c1ccc(N2CC(F)(F)C2)c(OCC2CC2)n1 (centres unmarked) [Example 271, 6-Cyclopropylmethoxy-5-(3,3-difluoro-azetidin-1-yl)-pyridine-2-carboxylic acid (1-cyano-3-methyl-butyl)-amide]	7.9 nM	> 10000 nM
CCC(CC)(NC(=O)c1ccc(N(CC(F)(F)F)CC(F)(F)F)c(OCC2CC2)n1)C(=O)OC [Example 220, 2-({5-[Bis-(2,2,2-trifluoro-ethyl)-amino]-6-cyclopropylmethoxy-pyridine-2-carbonyl}-amino)-2-ethyl-butyric acid methyl ester]	1.6 nM	129 nM
